Source: publication PMC6544300, “Mechanism of the efflux transport of demethoxycurcumin-O-glucuronides in HeLa cells stably transfected with UDP-glucuronosyltransferase 1A1” (PLoS ONE, 2019)
Like-named read-outs stand apart in the source and are kept apart here.

Legend:
BCRP = biological target: T1, BCRP (Homo sapiens, UniProt Q9UNQ0); set-up: method as in PMID 28925930; settings: following curcumin pretreatment; subjects with ABCG2 421CC genotype; cited from earlier work
T1 sequence (Q9UNQ0 1-655): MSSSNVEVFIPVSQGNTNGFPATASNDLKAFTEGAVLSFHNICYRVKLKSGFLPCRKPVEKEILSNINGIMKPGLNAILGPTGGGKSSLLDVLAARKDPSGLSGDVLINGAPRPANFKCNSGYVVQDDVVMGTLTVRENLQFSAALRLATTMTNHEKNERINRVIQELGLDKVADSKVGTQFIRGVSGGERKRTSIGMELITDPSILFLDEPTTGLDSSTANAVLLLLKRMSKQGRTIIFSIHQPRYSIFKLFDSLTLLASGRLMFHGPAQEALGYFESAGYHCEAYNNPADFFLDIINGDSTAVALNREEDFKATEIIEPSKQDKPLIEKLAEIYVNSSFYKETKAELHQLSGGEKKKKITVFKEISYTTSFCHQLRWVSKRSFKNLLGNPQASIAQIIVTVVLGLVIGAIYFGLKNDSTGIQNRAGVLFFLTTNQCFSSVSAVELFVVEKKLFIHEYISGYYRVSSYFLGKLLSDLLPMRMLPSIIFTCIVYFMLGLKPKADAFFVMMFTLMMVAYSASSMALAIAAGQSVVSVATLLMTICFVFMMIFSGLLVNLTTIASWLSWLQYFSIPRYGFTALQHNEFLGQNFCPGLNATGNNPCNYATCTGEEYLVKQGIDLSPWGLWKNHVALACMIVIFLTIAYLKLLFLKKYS

BCRP transporter = test system: BCRP transporter; set-up: method as in PMID 25587128; settings: cited from earlier work
MRP2 = test system: MRP2; set-up: method as in PMID 26502886; settings: MRP2-mediated transport; cited from earlier work
MRP1 = test system: MRP1; set-up: method as in PMID 26502886; settings: MRP1-mediated transport; cited from earlier work
CYP3A4 = test system: CYP3A4; set-up: method as in PMID 21287405; settings: human CYP3A4; cited from earlier work
UGT1A3 = test system: UGT1A3; set-up: method as in PMID 17628876; settings: cited from earlier work
CYP1A2 = test system: CYP1A2; set-up: method as in PMID 21287405; settings: human CYP1A2; cited from earlier work
HeLa1A1 cells = experiment: Toxicity of DMC toward HeLa1A1 cells during excretion experiments; type: cell-based, human; settings: DMC 4 μM
2C9 = test system: 2C9; set-up: method as in PMID 18480186; settings: cited from earlier work
[1] = test system: human intestinal P-glycoprotein (P-gp); set-up: method as in PMID 19879740; settings: cited from earlier work
UGT1A1 [2] = biological target: T2, UGT1A1 (Homo sapiens, UniProt P22309); experiment: DMC-O-glucuronidation kinetics by recombinant UGT1A1; type: in vitro ADME; set-up: purchased Corning Biosciences; settings: for CLint: Vmax/Km; for Vmax: UGT1A1, Michaelis-Menten model
T2 sequence (P22309 26-533): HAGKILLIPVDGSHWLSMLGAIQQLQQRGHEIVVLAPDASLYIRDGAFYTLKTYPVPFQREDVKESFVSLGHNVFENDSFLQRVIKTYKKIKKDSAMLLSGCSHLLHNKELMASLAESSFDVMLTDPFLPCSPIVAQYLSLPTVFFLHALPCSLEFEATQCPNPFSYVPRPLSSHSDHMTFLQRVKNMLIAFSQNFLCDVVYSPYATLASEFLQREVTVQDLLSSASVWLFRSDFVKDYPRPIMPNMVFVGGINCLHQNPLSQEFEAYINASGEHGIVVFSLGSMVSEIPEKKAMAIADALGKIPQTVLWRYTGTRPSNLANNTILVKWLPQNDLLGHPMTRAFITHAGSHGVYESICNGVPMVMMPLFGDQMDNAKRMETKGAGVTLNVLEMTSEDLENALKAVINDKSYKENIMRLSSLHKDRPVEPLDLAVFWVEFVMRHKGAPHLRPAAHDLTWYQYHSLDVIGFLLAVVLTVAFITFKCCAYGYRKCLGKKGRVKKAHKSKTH
Experimental: (§1) The glucuronidation assay was performed as previously described. Briefly, alamethicin (22 μg/mL), D-saccharic-1,4-lactone (4.4 mM), MgCl2 (0.88 mM), UGT1A1 (1.0 mg/mL) or HeLa1A1 cell lysates (2.3 mg/mL) and DMC (0.5 to 40 μM) were mixed in a 50 mM Tris buffer (pH 7.4). After a preincubation at 37°C for 5 min, UDPGA (3.5 mM) was added to the incubation system, and the mixture was further incubated. After 30 min, the reactions were terminated by the addition of ice-cold acetonitrile (200 μL). The mixed samples were centrifuged at 13,800 x g for 10 min, and the supernatant was analyzed using UHPLC.
(§2) The best model was selected based on a visual inspection of the Eadie-Hofstee plots. Briefly, the rates (V) of glucuronide formation at various substrate concentrations (S) were fitted based on the standard Eq (3). Km represents the Michaelis-Menten constant and Vmax represents the maximum rate of glucuronidation. The intrinsic clearance (CLint) was derived from Vmax/Km. Model fitting and parameter estimation were performed by GraphPad Prism V5 software (SanDiego, CA, USA).

UGT1A1 [3] = test system: UGT1A1; set-up: method as in PMID 17628876; settings: cited from earlier work
UGT1A10 = test system: UGT1A10; set-up: method as in PMID 17628876; settings: cited from earlier work
HeLa1A1 cell lysate = biological target: T3, HeLa1A1 cell lysate (Homo sapiens, UniProt P22309); experiment: DMC-O-glucuronidation kinetics by HeLa1A1 cell lysate; type: in vitro ADME; settings: for Km / Vmax: Michaelis-Menten model; for CLint: Vmax/Km
T3 construct: expressed in transfected cells; host or cells: HeLa cells stably overexpressing UGT1A1 (HeLa1A1), used as cell lysate
T3 sequence (P22309 26-533): T2 sequence (P22309 26-533)
Experimental: HeLa1A1 cells were grown in 10-cm dishes for 72 h and then washed and harvested in 50 mM Tris buffer (pH 7.4). The collected cells were sonicated using […] in an ice-cold water bath (4°C). Subsequently, the cell lysates were centrifuged at 13,800 x g for 10 min (4°C). The supernatant was collected for use in the UGT glucuronidation activity assay. The protein concentration was determined using the bicinchoninic acid (BCA) assay (Beyotime, Shanghai, China). Due to the thermal stability of UGT1A1, the glucuronidation activity of UGT1A1 was not affected during sonication process.
as §1, §2

UGT2B7 = test system: UGT2B7; set-up: method as in PMID 17628876; settings: cited from earlier work
[4] = set-up: method as in PMID 24480327; settings: 2 g curcuminoids incl. 12% DMC orally, two healthy volunteers; below detection limit; cited from earlier work
UGTs = test system: UGTs; set-up: method as in PMID 18480186; settings: cited from earlier work
CYP3As = test system: CYP3As; set-up: method as in PMID 18480186; settings: cited from earlier work
SULTs = test system: SULTs; set-up: method as in PMID 18480186; settings: cited from earlier work
[5] = set-up: method as in earlier work; settings: cited from earlier work
CYP2C9 = test system: CYP2C9; set-up: method as in PMID 21287405; settings: human CYP2C9; cited from earlier work
UGT1A8 = test system: UGT1A8; set-up: method as in PMID 17628876; settings: cited from earlier work
[6] = formation of G1, HeLa1A1 cell lysate
[7] = formation of G2, HeLa1A1 cell lysate

In the case of `COc1cc(/C=C/C(=O)CC(=O)/C=C/c2ccc(O)c(OC)c2)ccc1O` [curcumin], the “increase in AUC of orally administered salazosulfapyridine (SASP)” value (BCRP) is listed as 3.2 fold, the Ki (BCRP transporter) is listed as 0.7 µM and the IC50 (MRP2) is listed as 5 µM. For the same molecule, the IC50 (MRP1) was 15 µM.
In the case of Demethoxycurcumin [DMC], the IC50 (CYP3A4) is listed as 7 µM, the “catalytic activity (glucuronidation of DMC)” value (from here on “catalytic activity”) (UGT1A3) is listed as “less than 1100 pmol/min/mg” and the IC50 (CYP1A2) is listed as 34 µM. For the same molecule, the “toxicity toward HeLa1A1 cells” value (HeLa1A1 cells) was “did not exert significant toxicity”, the IC50 (2C9) was 8.8 µM and the “inhibition of P-gp activities” value [1] was “capable of inhibiting”. It also gave a Km (UGT1A1 [2]; formation of G1, UGT1A1, Michaelis-Menten model) of 4.5 ± 0.9 µM, a CLint (UGT1A1 [2]; formation of G1, UGT1A1) of 225.9 ± 47.3 µL/min/mg and a Vmax (UGT1A1 [2]; formation of G1 from DMC (0.5-40 μM)) of 1006.0 ± 62.8 pmol/min/mg. The Km (UGT1A1 [2]; formation of G2, UGT1A1, Michaelis-Menten model) was 2.7 ± 0.5 µM, the CLint (UGT1A1 [2]; formation of G2, UGT1A1) was 212.6 ± 38.3 µL/min/mg and the Vmax (UGT1A1 [2]; formation of G2 from DMC (0.5-40 μM)) was 576.1 ± 27.0 pmol/min/mg. The “catalytic activity” value (UGT1A1 [3]) was “approximately 1600 pmol/min/mg”, the “catalytic activity” value (UGT1A10) was “less than 1100 pmol/min/mg” and the Km (HeLa1A1 cell lysate; [6]) was 5 ± 1.3 µM. The Vmax (HeLa1A1 cell lysate; [6]) was 264.5±22.3 ( ^***) pmol/min/mg, the CLint (HeLa1A1 cell lysate; [6]) was 53.0±14.5 ( ^***) μL/min/mg and the Km (HeLa1A1 cell lysate; [7]) was 3.8 ± 0.9 µM. The Vmax (HeLa1A1 cell lysate; [7]) was 167.4±11.3 (^###) pmol/min/mg, the CLint (HeLa1A1 cell lysate; [7]) was 43.9±10.4 (^###) μL/min/mg and the “catalytic activity” value (UGT2B7) was “less than 1100 pmol/min/mg”. For the same molecule, the DMC concentration [4] was less than 2.0 ng/mL, the IC50 (UGTs) was 13.9 µM and the IC50 (CYP3As) was 31.5 µM. The IC50 (SULTs) was 1.7 µM, the “tissue distribution of free DMC” value ([5]; heart) was roughly 140 ng/g and the “tissue distribution of free DMC” value ([5]; intestine) was roughly 150000 ng/g. For the same molecule, the “tissue distribution of free DMC” value ([5]; kidney) was roughly 80 ng/g, the “tissue distribution of free DMC” value ([5]; liver) was “approximately 120 ng/g” and the “tissue distribution of free DMC” value ([5]; spleen) was roughly 50 ng/g. For the same molecule, the IC50 (CYP2C9) was 1.4 µM and the “catalytic activity” value (UGT1A8) was “less than 1100 pmol/min/mg”.
